Where a name gives a salt, the structure may show the parent alone. Read-outs that look alike come from different tables or passages of the source.
Experiments:
Plasmodium yoelii = experiment: In vivo activity against Plasmodium yoelii in mice (modified 4-day suppressive test)
Procedure: Compounds A and B were administered orally and intravenously, and compound (I) was administered orally only, in the manner described below.
The test method is a modified version of the 4-day suppressive test. The YM strain of P.yoelii was maintained in mice by twice weekly passage. Infected blood was collected and diluted with normal saline to give an inoculum of 3x10⁶ parasitized enythrocytes/ml. On the morning of Day 1 the test animals (male CD-1 mice weighing 18-20g) were infected intravenously via the tail vein with 0.1ml of inoculum/mouse.
Test compounds A, B and (I) were formulated by ball milling in 0.25% celacol with stainless steel balls. The total requirement was formulated at the beginning of a test and thereafter stored at 4°C.
Each test compound was administered orally (p.o.) to four or more usually five groups of mice, each group receiving a different dose level (dilution). A further group of mice was administered celacol only, as a control (ie. a total of 30 mice are used to obtain each ED₅₀). The mice were dosed orally in the late afternoon of Day 1 and in the early morning and late afternoon of days 2, 3 and 4, giving a total of seven doses in four days or 24 hours post-infection i.e. on day 2 when given as a single dose.
I.v. formulations of test Compounds A and B were prepared by dissolving the compound in water immediately before use, and administered via the tail vein as a single dose 24 hours post-infection, i.e. on day 2.
On the morning of day 5 smears of tail blood were prepared from each mouse and the parasitaemia counted. Data were analysed to yield ED₅₀ values by the best fit to a sigmoidal dose response curve.

Solubility in water = assay type: physicochemical; conditions: statement in words
[1] = Plasmodium yoelii, po, dosing schedule 1 x p.o. (single dose 24 hours post-infection), YM strain of P.yoelii, male CD-1 mice, parasitaemia on day 5, read-out: ED50

Compound	Weight adjusted ED50 (Plasmodium yoelii; 7 x p.o., calculated in terms of the amount of compound (I) administered) [mg/kg]	ED50 (Plasmodium yoelii; dosing schedule 7 x p.o. (seven doses in four days), YM strain of P.yoelii, male CD-1 mice, parasitaemia on day 5) [mg/kg]	solubility in water (Solubility in water)	ED50 (Plasmodium yoelii; Plasmodium yoelii, iv, 1 x i.v., calculated in terms of the amount of compound (I) administered, read-out: Weight adjusted ED50) [mg/kg]	ED50 (Plasmodium yoelii; Plasmodium yoelii, iv, dosing schedule 1 x i.v. (single dose 24 hours post-infection, dissolved in water), YM strain of P.yoelii, male CD-1 mice, parasitaemia on day 5, read-out: ED50) [mg/kg]	ED50 (Plasmodium yoelii; Plasmodium yoelii, po, 1 x p.o., calculated in terms of the amount of compound (I) administered, read-out: Weight adjusted ED50) [mg/kg]	ED50 (Plasmodium yoelii; [1]) [mg/kg]	ED50 (Plasmodium yoelii; Plasmodium yoelii, po, dosing schedule 7 x p.o. (seven doses in four days), YM strain of P.yoelii, male CD-1 mice, parasitaemia on day 5, read-out: ED50) [mg/kg]
3-[trans-4-(4-Chlorophenyl)cyclohexyl]-1,4-dioxo-2-naphthylphosphate bis diethanolamine salt [Compound (A)]	0.056	0.1						
O=C1C(OP(=O)(O)O)=C([C@H]2CC[C@H](c3ccc(Cl)cc3)CC2)C(=O)c2ccccc21 [Compound (B), 3-[trans--4-(4-Chlorophenyl)cyclohexyl]-1,4-dioxo-2-naphthylphosphate N-methylglucosamine salt]			readily soluble in cold water	0.12	0.27	0.1	0.23	
O=C1C(O)=C([C@H]2CC[C@H](c3ccc(Cl)cc3)CC2)C(=O)c2ccccc21 [Compound (I), 2-[trans-4-(4-Chlorophenyl)cyclohexyl]-3-hydroxy-1,4-naphthoquinone, reference compound]							0.09	0.03

From patent EP0537947A1, “Naphthoquinone derivatives for the treatment of parasitic infections” (THE WELLCOME FOUNDATION LIMITED, priority 1991, dated 1993)
